Data from patent US11020419B2, “Use of polyinosinic-polycytidylic acid compositions in treatment of malignant effusion” (BIOSYNGEN PTE, LTD, priority 2016, dated 2021).

Tests used:
[1] = test system: mice liver cancer cell line H22; assay: BSG in preventing and controlling MA in H22 mouse model (Example 2); format: in vivo; settings: for number of mice with nodules at the 7th day post inoculation: 9 mice each; for No. mice survive through Day 15: 9 mice/group; for ILS (average increase in life span): vs control group
Experimental: Materials: mice liver cancer cell line H22; female mice 6-8 weeks old, 18-22 g. BSG, containing 2 mg/ml PIC, produced in-house; comparator, DDP purchased from Jiangzu Haoseng; negative control normal saline (N.S).
Methods: Thaw H22 cell line, wash before inject intraperitoneally (i.p.) into 2 female BALB/c mice, and wait 10 days for peritoneal fluid accumulation. Draw accumulated fluid on D10, adjust the cell density at 1×10^7/ml. Inject another 54 mice via i.p. route with 0.2 ml of the fluid containing total of 2×10^6 cancerous cells. Pick 18 mice and divide into 2 groups at random 24 h post-inoculation. Each group of mice receives either A. BSG (subcutaneous, s.c. 200 ug/ul) or B. DDP (intraperitoneal, i.p. 20 ug/ul) at dosage set out below as a preventive measure. Treat mice daily for 14 days. The rest of mice were divided into 4 groups at random 5 d post-inoculation, namely C. BSG group (s.c.), D. BSG group (i.p.), E. DDP group (i.p.), and F. control group (s.c., N.S). Treat mice daily for 10 days (grouping detail see table below).
MA volume of treatment groups/ave. MA volume of control group)×100%.

S180 cell line = assay: Concomitant use of BSG with chemotherapeutic drugs in S180 cell line induced MA (Example 4); format: in vivo, mice; settings: for Ascites Vol.: D12 (2 d post-treatment), 7 days treatment from 4 d post-inoculation
Experimental: Materials: S180 cell line (purchased from CCTCC), female BAL/c mice (6-7 weeks old purchased from Centre of Laboratory Animal for Medical Science, Guangdong), BSG (2 mg/ml, produced in house), DDP (cisplatin, 5 mg/ml, from Jingasu Hansoh Pharma, batch no. 160603), CTX (cyclophosphamide), Sodium Chloride for Injection (2.25 g, 250 ml, 0.9%, from Zhejiang Tianrui, pharmaceutica, batch no. 116102506). Methods: 1. MA induction and propagation in mice: take logarithmic growth phase cells, adjust cell density to 5×10^6/ml, inject mice (i.p., 0.4 ml per animal). Collect MA fluid from mice 7-8 days post inoculation, adjust cell density to 2×10^7/ml and inject another 4 mice (i.p., 0.4 ml per animal). Collect MA fluid again from mice 6-7 days post inoculation, adjust cell density to 5×10^6/ml and inoculate 2×10^6 cells to 48 mice before grouping. 2. Grouping: randomly divide mice 4 d post-inoculation according to body weight into A, B, C, D, E, F groups with 8 mice per group. Treat mice with A. BSG (7.5 mg/kg), B. CTX (50 mg/kg), C. DDP (0.5 mg/kg), D. BSG (7.5 mg/kg)+CTX (50 mg/kg), E. BSG (7.5 mg/kg)+DDP (0.5 mg/kg), F. N.S control for 7 days (Grouping detail see Table 7).
3. Observations: 1) record mice behavior and skin/fur glossiness daily, measure body weights and abdominal girth every two days; 2) 2 d post-treatment (D12), obtain blood from eye venous plexus and separate serum for while blood cell count (at least 20 ul). After obtaining blood, execute mice by cervical dislocation, measure pleural fluid volume and record color of fluid; 3) calculate rate of MPE suppression (%)=(1−ave. MPE volume of treatment groups/ave. MA volume of control group)×100%.

H22 cells = test system: H22 cells
Experimental: MPE usually refers to tumors originated from the chest metastasis to the pleural space, which leads to the formation of excessive fluid containing cancerous cells and it accounts for about 50% of all pleural effusions. […] Materials: mice liver cancer cell line line (purchased from CCTCC), BAL/c mice (female, 6-7 weeks old, 18-22 g, SPF, purchased from Wei Tong Li Hua, Beijing). BSG, 2 mg/ml, produced in house. Comparator CTX (cyclophosphamide, 0.2 g, from Baxter Oncology GmbH, batch no. 6D111A). Sodium Chloride for Injection (2.25 g, 250 ml, 0.9%, from Zhejiang Tianrui, pharmaceutica, batch no. 116102506).
Methods: Thaw H22 cells, adjust density to 1×10^7 cells/ml, then inject 3 mice, 0.2 ml each. Collect excessive fluid from the injected mice on after 7 days and adjust cell density to 5×10^5/ml, inject another […] into the peritoneal muscle, 0.2 ml/mouse. Divided the mice randomly into 6 groups of 14 mice each three days post-inoculation, among the 14 mice of each group, 6 will be kept separately for survival study (see Table 4b). Treat mice continuously (grouping detail see Table 4a and 4b).
Observations: 1) record mice behavior and skin/fur glossiness daily, measure body weights every two days; 2) 5 h post-treatment on D6, obtain blood from eye venous plexus until death and separate serum for white blood cell count (at least 20 ul); after obtaining blood, execute mice by cervical dislocation, measure pleural fluid volume and obtain thymus, spleen and lung, record organ weight; 3) record survival status of the rest of mice in Groups A2 to E2, calculate average increase in life span (ILS) using formula=[(ave. survival days of treatment groups/ave. survival days of control group)−1]×100%; 4) calculate rate of MPE suppression (%)=(1−ave. MPE volume of treatment groups/ave. MPE volume of control group)×100%.

[2] = preventive, from 24 h post-inoculation, daily 14 days, BSG 200 ug s.c. (Group A), DDP 20 ug i.p. (Group B)
[3] = treatment from 5 d post-inoculation, daily 10 days, i.p.: BSG 200 ug (Group D), DDP 20 ug (Group E)
[4] = BSG 7.5 mg/kg i.m., CTX 50 mg/kg i.m., DDP 0.5 mg/kg i.p., alone or combined
[5] = D12, BSG 7.5 mg/kg i.m., CTX 50 mg/kg i.m., DDP 0.5 mg/kg i.p., alone or combined
[6] = survival groups, 6 mice each, i.m., BSG 7.5 mg/kg, CTX 30 mg/kg, alone or combined

N.N.[Cl][Pt][Cl] [DDP, cisplatin]
average cancerous cells in ascites ([1]; cell count 2D post-treatment (D15), preventive: BSG 200 ug s.c. (Group A), DDP 20 ug i.p. (Group B)): 3.17 10^6/ml
ascites volume (on average) ([1]; i.p. administration, BSG 200 ug, DDP 20 ug daily, D15): 1.7 mL
number of mice with nodules at the 7th day post inoculation ([1]; preventive groups, BSG 200 ug s.c. (Group A, small size nodule), DDP 20 ug i.p. (Group B, medium size nodules)): 6
No. mice survive through Day 15 [1, 2]: 6
Ave. survival [1, 2]: 14.4 days
ILS (average increase in life span) [1, 2]: 72%
number of mice with nodules at the 7th day post inoculation ([1]; treatment from 5 d, i.p.: BSG 200 ug (Group D), DDP 20 ug (Group E), medium size nodules): 6
No. mice survive through Day 15 [1, 3]: 2
Ave. survival [1, 3]: 12.8 days
ILS (average increase in life span) [1, 3]: 53%
number of mice not alive until D12 (S180 cell line; 8 mice per group, DDP 0.5 mg/kg i.p. (Group C), BSG 7.5 mg/kg + CTX 50 mg/kg (Group D)): 4
Ascites Vol. (S180 cell line; [4]): 5.63 mL
MA color recorded (S180 cell line; [5]): bloody ascites with one mouse having milky color
tumor burden and MA volume (body weight on D12) (S180 cell line; survived mice, D12, FIG. 7): largest tumor burden and MA volume

O=P1(N(CCCl)CCCl)NCCCO1 (stereo not shown) [CTX, cyclophosphamide]
body weight on D7 (H22 cells; BSG high dose 7.5 mg/kg, CTX 30 mg/kg, combined, i.m., FIG. 5): lower body weight
organ weight post treatment (thymus and spleen) (H22 cells; CTX 30 mg/kg i.m., FIG. 4): lower average weight of organ
Ave. survival (H22 cells; i.m., BSG 7.5 mg/kg, CTX 30 mg/kg, alone or combined): 6.00 days
ILS (average increase in life span) (H22 cells; i.m., BSG 7.5 mg/kg, CTX 30 mg/kg, alone or combined, vs control, % only in formula b145): 2.86%
No. of Mice D 3 (H22 cells; [6]): 6
No. of Mice D 4 (H22 cells; [6]): 6
No. of Mice D 5 (H22 cells; [6]): 4
No. of Mice D 6 (H22 cells; [6]): 1
No. of Mice D 7 (H22 cells; [6]): 1
No. of Mice D 8 (H22 cells; [6]): 0
No. of Mice D 9 (H22 cells; [6]): 0
Ascites Vol. (S180 cell line; [4]): 2.84 mL
MA color recorded (S180 cell line; [5]): 3 mice with bloody ascites, 4 faintly red and 1 milky color
MA Suppression (S180 cell line; D12, BSG 7.5 mg/kg i.m., CTX 50 mg/kg i.m., DDP 0.5 mg/kg i.p., alone or combined, vs N.S control): 63.5%
